Patent US5770590A, “Cyclic compounds, their prudiction and use” (Takeda Chemical Industries, Ltd., priority 1995, dated 1998)

What was measured:
[1] = tested on: plasma extravasation induced by capsaicin in trachea; assay: Inhibitory effect on plasma extravasation induced by capsaicin in trachea of guinea pigs; type: in vivo, guinea pigs (Hartley type white male); settings: Table 3, Dunnett's test *p < 0.05, **p < 0.01, ***p < 0.001
Experimental: [Inhibitory effect on plasma extravasation induced by capsaicin in trachea of guinea pigs] Guinea pigs (Hartley type white male guinea pige), (n=6) were anesthetized with 35 mg/kg of pentobarbital injected intraperitoneally (i.p.), then test compounds were administered intravenously (i.v.). After 5 minutes, a mixed solution of capsaicin (150 μg/kg) and Evans' blue dye (20 mg/kg) was administered intravenously to cause reaction. Ten minutes later, test animals were sacrificed by cutting the aorta, then perfused through pulmonary artery with 50 ml of physiological saline. The trachea was excised, and its wet weight was measure. The trachea was incubated at room temperature in 1 ml of acetone-0.3% sodium sulfate (7:3) overnight and Evans' blue dye was extracted from the trachea. The extract solution was centrifuged at 2800 rpm for 5 minutes. The amount of Evans' blue dye in the supernatant was quantified by measuring absorbance at […]. Plasma extravasation was expressed in terms of the amount of Evans' blue dye (μg) relative to the weight of the trachea (g). The efficacy of the drug was evaluated by calculating the % inhibition in accordance with the following formula, or expressed in terms of [formula] A: the amount of Evan's blue dye (μg/g) in each test animal B: The mean amount of Evan's blue dye (μg/g) of the group untreated with capsaicin.

[2] = molecular target: T1, substance P receptor (receptor from human lymphoblast cells (IM-9)) (Homo sapiens, UniProt P25103); assay: Radioligand receptor binding inhibitory activity using receptor from human lymphoblast cells (IM-9), 125I-BHSP; settings: Table 1, IM-9 receptor, 25° C., 30 minutes
T1 construct: The receptor was prepared from human lymphoblast cells (IM-9); endogenous in cells; host or cells: IM-9 human lymphoblast cells (crude membranes)
T1 sequence (P25103 whole entry): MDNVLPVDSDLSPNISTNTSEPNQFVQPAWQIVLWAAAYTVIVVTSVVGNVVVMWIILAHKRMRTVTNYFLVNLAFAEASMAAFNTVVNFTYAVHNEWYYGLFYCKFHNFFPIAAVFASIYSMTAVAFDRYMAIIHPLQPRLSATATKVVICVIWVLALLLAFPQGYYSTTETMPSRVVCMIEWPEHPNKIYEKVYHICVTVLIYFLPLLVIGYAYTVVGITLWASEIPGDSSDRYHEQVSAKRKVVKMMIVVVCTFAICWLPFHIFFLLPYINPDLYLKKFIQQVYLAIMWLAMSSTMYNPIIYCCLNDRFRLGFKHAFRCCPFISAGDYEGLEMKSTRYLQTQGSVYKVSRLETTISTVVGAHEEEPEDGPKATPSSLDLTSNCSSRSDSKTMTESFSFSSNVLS
Experimental: The receptor was prepared from human lymphoblast cells (IM-9). IM-9 cells (2×10^5 cells/ml) were inoculated and incubated for 3 days (one liter), which was then subjected to centrifuge for 5 minutes at 500×g to obtain cell pellets.
After washing three times with 250 ul of 50 mM of Tris-HCl buffer (pH 7.4) containing 0.02% bovine serum albumin, the radioactivity remaining on the filter was determined with a gamma counter. Before use, the filter was immersed in 0.1% polyethyleneimine for 24 hours and air-dried.

Structure (SMILES)	Inhibition of plasma extravasation ([1]; dose 100 μg/kg i.v.)	Inhibition of plasma extravasation ([1]; dose 10 μg/kg i.v.)	other results
Cc1cnc2c(c1-c1ccccc1)C(=O)N(Cc1cc(C(F)(F)F)cc(C(F)(F)F)c1)CCCO2 [Example 24, 5-[3,5-Bis(trifluoromethyl)benzyl]-2,3,4,5-tetrahydro-8-methyl-6-oxo-7-phenyl-6H-pyrido[2,3-b][1,5]oxazocine]	53.1%		
Cc1ccc(-c2c3n(c(=O)c4ncccc24)C[C@@H](C)CN(Cc2cc(C(F)(F)F)cc(C(F)(F)F)c2)C3=O)cc1 [Example 14, (9S)-7-[3,5-Bis(trifluoromethyl)benzyl]-6,7,8,9,10,12-hexahydro-9-methyl-5-(4-methylphenyl)-6,12-dioxo[1,4]diazepino[2,1-g][1,7]naphthyridine]			IC50 [2]: 0.28 nM
Cc1ccc(-c2c3n(c(=O)c4ncccc24)CCC(C)CN(Cc2cc(C(F)(F)F)cc(C(F)(F)F)c2)C3=O)cc1 (racemic) [Example 16, (+/-)-7-[3,5-Bis(trifluoromethyl)benzyl]-6,7,8,9,10,11-hexahydro-9-methyl-5-(4-methylphenyl)-6,13-dioxo-13H-[1,4]diazocino[2,1-g][1,7]naphthyridine]		60.5%	
Cc1cnc2c(c1-c1ccccc1)C(=O)N(Cc1cc(C(F)(F)F)cc(C(F)(F)F)c1)CCO2 [Example 23, 4-[3,5-Bis(trifluoromethyl)benzyl]-2,3,4,5-tetrahydro-7-methyl-5-oxo-6-phenylpyrido[3,2-f][1,4]oxazepine]	64.0%		
CC1CCn2c(c(-c3ccccc3)c3cccnc3c2=O)C(=O)N(Cc2cc(C(F)(F)F)cc(C(F)(F)F)c2)C1 (racemic) [Example 15, (+/-)-7-[3,5-Bis(trifluoromethyl)benzyl]-6,7,8,9,10,11-hexahydro-9-methyl-6,13-dioxo-5-phenyl-13H-[1,4]diazocino[2,1-g][1,7]naphthyridine]		68.4%	
O=C1c2c(-c3ccccc3)ccnc2OCCCN1Cc1cc(C(F)(F)F)cc(C(F)(F)F)c1 [Example 22, 5-[3,5-Bis(trifluoromethyl)benzyl]-2,3,4,5-tetrahydro-6-oxo-7-phenyl-6H-pyrido[2,3-b][1,5]oxazocine]	41.2%		
